Results as given in patent publication US11400106B2, “Methods for inhibiting microbe growth” (priority 2018, dated 2022).
Read-outs that look alike come from different tables or passages of the source.

Legend:
[1] = system: Acinetobacter baumannii; assay: MIC determination against Acinetobacter baumannii; format: cell-based; conditions: for MIC: Acinetobacter baumannii
Procedure: (§1) In the following experiments, bacterial cells were cultured in 96-well microtiter plates in cation-adjusted Mueller-Hinton Broth (MHB) for 18 h at 37° C. The main strains used were E. coli (K-12 BW25113) (placed in stationary incubator) and S. aureus (Newman Strain) (incubated at 250 r.p.m). Knockout strains (ΔtolcC and ΔychM) were used from the Keio knockout collection (Baba et al., Construction of Escherichia coli K-12 in-frame, single-gene knockout mutants: the Keio collection. Mol Syst Biol 2, 2006 0008, doi:10.1038/msb4100050 (2006)). For MIC determination and checkerboard analyses, Clinical & Laboratory Standards Institute (CLSI) protocol was used. […] DiSC3 loading of S. aureus cells was performed as previously described (Farha et al., Collapsing the proton motive force to identify synergistic combinations against Staphylococcus aureus. Chemistry & biology 20, 1168-1178, doi:10.1016/j.chembiol.2013.07.006 (2013)). CCCP concentration of 20 μM was used. pH adjustments were made by addition of HCl or NaOH. INT assay and ATP bioluminescence assays were performed as previously described (Farha et al., Collapsing the proton motive force to identify synergistic combinations against Staphylococcus aureus. Chemistry & biology 20, 1168-1178, doi:10.1016/j.chembiol.2013.07.006 (2013)). For chemical-genomic studies, the Keio library was grown overnight in cation-adjusted MHB broth, in 384-well plates. From these, treatment plates (25 mM sodium bicarbonate, or a sterile water control) were inoculated and grown for 15 hours at 37° C., in a stationary incubator. Data was normalized according to Mangat et al (Mangat et al., Rank ordering plate data facilitates data visualization and normalization in high-throughput screening. J Biomol Screen 19, 1314-1320, doi:10.1177/1087057114534298 (2014)), with gene products and GO terms mined from EcoCyc. The GFP promoter library (Keseler et al., EcoCyc: fusing model organism databases with systems biology. Nucleic Acids Res 41, D605-612, doi:10.1093/nar/gks1027 (2013)) was grown for 18 hours at ambient temperature with the same inoculation strategy as with the Keio collection. The analysis pipeline of Zaslaver et al (Zaslaver et al., A comprehensive library of fluorescent transcriptional reporters for Escherichia coli. Nat Methods 3, 623-628, doi:10.1038/nmeth895 (2006)) was used to generate maps of promoter activity, from which lists of promoters with increased or decreased activity were compiled.

[2] = system: Pseudomonas aeruginosa; assay: MIC determination against Pseudomonas aeruginosa; format: cell-based
Procedure: as §1, with “The GFP promoter library (Keseler et al., EcoCyc: fusing model organism databases with systems biology. Nucleic Acids Res 41, D605-612, doi:10.1093/nar/gks1027 (2013)) was grown for 18 hours at ambient temperature with the same inoculation strategy as with the Keio collection. The analysis pipeline of Zaslaver et al (Zaslaver et al., A comprehensive library of fluorescent transcriptional reporters for Escherichia coli. Nat Methods 3, 623-628, doi:10.1038/nmeth895 (2006)) was used to generate maps of promoter activity, from which lists of promoters with increased or decreased activity were compiled.” left out

[3] = system: Klebsiella pneumoniae; assay: MIC determination against Klebsiella pneumoniae; format: cell-based
Procedure: as §1, with “The GFP promoter library (Keseler et al., EcoCyc: fusing model organism databases with systems biology. Nucleic Acids Res 41, D605-612, doi:10.1093/nar/gks1027 (2013)) was grown for 18 hours at ambient temperature with the same inoculation strategy as with the Keio collection. The analysis pipeline of Zaslaver et al (Zaslaver et al., A comprehensive library of fluorescent transcriptional reporters for Escherichia coli. Nat Methods 3, 623-628, doi:10.1038/nmeth895 (2006)) was used to generate maps of promoter activity, from which lists of promoters with increased or decreased activity were compiled.” left out

[4] = system: Enterococcus faecalis; assay: MIC determination against Enterococcus faecalis; format: cell-based
[5] = system: Burkhloderia multivorans; assay: MIC determination against Burkhloderia multivorans; format: cell-based
Procedure: (§2) In the following experiments, bacterial cells were cultured in 96-well microtiter plates in cation-adjusted Mueller-Hinton Broth (MHB) for 18 h at 37° C. The main strains used were E. coli (K-12 BW25113) (placed in stationary incubator) and S. aureus (Newman Strain) (incubated at 250 r.p.m). Knockout strains (ΔtolcC and ΔychM) were used from the Keio knockout collection (Baba et al., Construction of Escherichia coli K-12 in-frame, single-gene knockout mutants: the Keio collection. Mol Syst Biol 2, 2006 0008, doi:10.1038/msb4100050 (2006)). For MIC determination and checkerboard analyses, Clinical & Laboratory Standards Institute (CLSI) protocol was used. […] DiSC3 loading of S. aureus cells was performed as previously described (Farha et al., Collapsing the proton motive force to identify synergistic combinations against Staphylococcus aureus. Chemistry & biology 20, 1168-1178, doi:10.1016/j.chembiol.2013.07.006 (2013)). CCCP concentration of 20 μM was used. pH adjustments were made by addition of HCl or NaOH. INT assay and ATP bioluminescence assays were performed as previously described (Farha et al., Collapsing the proton motive force to identify synergistic combinations against Staphylococcus aureus. Chemistry & biology 20, 1168-1178, doi:10.1016/j.chembiol.2013.07.006 (2013)). […]

[6] = system: S. aureus; assay: microbe, parasite or virus in culture; conditions: for MIC: Staphylococcus aureus
[7] = system: E. coli; assay: Checkerboard microdilution with sodium bicarbonate against E. coli; format: cell-based, Escherichia coli
Procedure: as §1
The effect of sodium bicarbonate on the activity of various antibacterial agents was investigated. Clinical isolates of various bacteria were obtained from the American Type Culture Collection (“ATCC”) and the International Health Management Associates (“IHMA”). Fractional inhibitory concentration indices (FICIs) were determined by setting up standard checkerboard broth microdilution assays in 96-well microtiter plates with serially diluted 8 (or 10) concentrations of each drug (sodium bicarbonate and the antibacterial agent). The protocol for checkerboard analyses was based on the CLSI guidelines. Plates were incubated at 37° C. for 18 hours, and optical density was read at 600 nm. At least 3 replicates were done for each query compound.
The FIC index (FICI) is the sum of the two FICs. Chemical-chemical interactions with ΣFIC of less or equal to 0.5 were deemed synergistic.
As validation, three of the antibiotic agents were further tested with checkerboard analyses. Checkerboard broth microdilution assays were set up in 96-well microtiter plates with serially diluted 8 (or 10) concentrations of each compound (sodium bicarbonate and the antibiotic). The protocol for checkerboard analyses was based on the CLSI guidelines. Plates were incubated at 37° C. for 18 hours, and optical density was read at 600 nm. At least 3 replicates were done for each query compound.

[8] = system: Burkhloderia cenocepacia; assay: MIC determination against Burkhloderia cenocepacia; format: cell-based
Procedure: as §2

[9] = system: E. coli; assay: microbe, parasite or virus in culture; format: cell-based, Escherichia coli
[10] = system: Saccharomyces cerevisiae; assay: MIC of pentamidine against Saccharomyces cerevisiae in YPD medium; format: cell-based
Procedure: Plates were incubated 24 hours and optical density read at 600 nm

[11] = system: methicillin-resistant Staphylococcus aureus (MRSA) USA-300; assay: Superficial skin infection model, tape-stripped mice, MRSA USA-300; format: in vivo
Procedure: (§3) In this model, an infection is established by disrupting the skin barrier through partial removal of the epidermal layer by stripping with adhesive tape and with subsequent application of the pathogen. Tape-stripped mice infected with 4×10^6 CFU/mL A. baumannii (FIG. 4A) or 4×10^6 CFU/mL methicillin-resistant Staphylococcus aureus (MRSA) USA-300 (FIG. 4B). […] This treatment regime was also conducted for the Vehicle (1.9% Boric Acid, pH 7) as a control (n=4). Tissue samples were collected at 25 hr post-infection (FIG. 4A) and 28 hr post-infection (FIG. 4B). […] (FIG. 5).

[12] = system: Gram-positive organisms
[13] = system: Gram-negative organisms
[14] = system: A. baumannii; assay: Murine model of systemic A. baumannii infection; format: in vivo, Acinetobacter baumannii; conditions: mice
Procedure: Mice were treated two-hours post-infection to allow complete organ occupancy by the injected cells.

[15] = system: A. baumannii; assay: Superficial skin infection model, tape-stripped mice, A. baumannii; format: in vivo, Acinetobacter baumannii; conditions: 0.5% pentamidine topical, tissue collected 25 hr post-infection
Procedure: as §3

[16] = system: E. coli MC1061; assay: Membrane potential dissipation, DiSC3(5) fluorescence spectroscopy; format: cell-based, Escherichia coli; conditions: E. coli grown in standard growth media or supplemented with 25 mM sodium bicarbonate; compound at MIC
Procedure: E. coli MC1061 cells were washed twice and suspended in a buffer containing 20 mM glucose and 5 mM HEPES (pH 7.2). Final resuspension was diluted to an optical density at 600 nm of 0.085. DiSC3(5) was added at a final concentration of 1 and the dye was left to stabilize (1 hr at 37° C.). Compounds were then injected at concentrations equivalent to their MIC. Fluorescent traces were measured in a fluorimeter (Photon Technology International) at the excitation and emission wavelengths of 622 and 660 nm, respectively.
Briefly, due to the potential gradient, the dye is taken up by bacteria and accumulation in the membrane leads to a decrease in fluorescence intensity due to self-quenching. A subsequent increase in fluorescence intensity is observed only if the dye is displaced into the solution as a result of dissipation of the membrane potential.

[17] = system: E. coli; assay: Gentamicin potency analysis with CCCP pre-treatment; format: cell-based, Escherichia coli; conditions: 25 mM sodium bicarbonate, CCCP pre-treated cells
Procedure: In the following experiments, bacterial cells were cultured in 96-well microtiter plates in cation-adjusted Mueller-Hinton Broth (MHB) for 18 h at 37° C. The main strains used were E. coli (K-12 BW25113) (placed in stationary incubator) and S. aureus (Newman Strain) (incubated at 250 r.p.m). […] For MIC determination and checkerboard analyses, Clinical & Laboratory Standards Institute (CLSI) protocol was used. […] DiSC3 loading of S. aureus cells was performed as previously described (Farha et al., Collapsing the proton motive force to identify synergistic combinations against Staphylococcus aureus. Chemistry & biology 20, 1168-1178, doi:10.1016/j.chembiol.2013.07.006 (2013)). CCCP concentration of 20 μM was used. pH adjustments were made by addition of HCl or NaOH. INT assay and ATP bioluminescence assays were performed as previously described (Farha et al., Collapsing the proton motive force to identify synergistic combinations against Staphylococcus aureus. Chemistry & biology 20, 1168-1178, doi:10.1016/j.chembiol.2013.07.006 (2013)). For chemical-genomic studies, the Keio library was grown overnight in cation-adjusted MHB broth, in 384-well plates. […]

[18] = read-out: MIC, tissue culture media formulated to mimic the natural environment

N=C(N)c1ccc(OCCCCCOc2ccc(C(=N)N)cc2)cc1 [pentamidine isethionate]
enhanced potency in tissue culture media formulated to mimic the natural environment ([1]; A. baumannii, versus standard media): > 50 fold
MIC ([1]; read-out: MIC, MHB): 100 mg/L
MIC [1, 18]: 12.5 mg/L
MIC ([2]; read-out: MIC, MHB): > 200 mg/L
MIC [2, 18]: 12.5 mg/L
MIC ([3]; read-out: MIC, MHB): > 200 mg/L
MIC [3, 18]: 12.5 mg/L
MIC ([4]; read-out: MIC, MHB): 25 mg/L
MIC [4, 18]: 3.1 mg/L
MIC ([5]; read-out: MIC, MHB): > 200 mg/L
MIC [5, 18]: 12.5 mg/L
MIC ([6]; read-out: MIC, MHB): 12.5 mg/L
MIC [6, 18]: < 0.1 mg/L
interaction with sodium bicarbonate (checkerboard) [7]: greatly potentiated
MIC ([8]; read-out: MIC, MHB): > 200 mg/L
MIC [8, 18]: 12.5 mg/L
MIC, tissue culture media formulated to mimic the natural environment ([9]; Escherichia coli): 1.5 mg/L
MIC ([9]; Escherichia coli, Mueller Hinton Broth, read-out: MIC, MHB): 200 mg/L
MIC ([9]; Escherichia coli, read-out: MIC, tissue culture media formulated to mimic the natural environment): 1 mg/L

N=C(N)c1ccc(OCCCCCOc2ccc(C(=N)N)cc2)cc1 [pentamidine]
MIC ([10]; 25 mM sodium bicarbonate): 4 mg/L
MIC ([10]; 50 mM sodium bicarbonate): 2 mg/L
MIC ([10]; no sodium bicarbonate): 256 mg/L
reduction in CFU/mL ([11]; 0.5% pentamidine topical, tissue collected 28 hr post-infection): 5 log
effect of addition of bicarbonate (50 mM) on antibacterial efficacy in clearing an MRSA infection ([11]; topical 0.5% aqueous pentamidine solution with or without bicarbonate (50 mM)): increased the antibacterial efficacy
potentiation of antibacterial activity in the presence of bicarbonate, on average [12]: 50 fold
potentiation of antibacterial activity in the presence of bicarbonate, on average [13]: 40 fold
rescue of animals ([14]; 50 mg/kg pentamidine IP, single dose 2 h post-infection, in the absence of novobiocin): 80%
A. baumannii organ load (e.g., spleen) decrease ([14]; pentamidine alone): seven
interaction with sodium bicarbonate (checkerboard) [7]: synergistic interaction
reduction in CFU/mL compared to vehicle-treated mice [15]: 4 log
effect on membrane potential [16]: dissipated the membrane potential

Gentamicin
effect of CCCP pre-incubation on potentiation by sodium bicarbonate [17]: reversed the potentiation
Fold, S. aureus [6]: 2
MIC, S. aureus, MHB− ([6]; MHB in the absence of sodium bicarbonate): 2
MIC, S. aureus, MHB+ ([6]; MHB in the presence of 25 mM sodium bicarbonate): 1
Fold, E. coli [9]: 8
